Test results as given in patent publication US20100267636A1, “USE OF CYTOCHROME P450-METABOLIZED DRUGS AND GRF MOLECULES IN COMBINATION THERAPY” (THERATECHNOLOGIES INC., priority 2009, published 2010).
Values belong to the compound of their own block, whether it stands above or below them.

Legend:
[1] = Plasma PK of TH9507 in simvastatin studies (ELISA); type: in vivo, human
Experimental: 2 ml of TH9507 (1 mg/ml injectable solution) was administered by subcutaneous injection under fasting conditions once daily for 7 consecutive days (daily dose of 2 mg TH9507).
N=58 healthy adult (male and female) subjects were enrolled. Dosing occurred in two groups.
PK/statistics: PK parameters were calculated using standard noncompartmental approaches.

CYP3A = assay: Impact of TH9507 on CYP3A activity (simvastatin drug interaction studies); type: in vivo, human; details: 2 mg TH9507 days 1 to 7, 80 mg simvastatin as CYP3A substrate on Day 6
Excerpt: The final ANOVA models included group, sequence, treatment, and period nested within group as fixed effects and subject nested within group-by-sequence as a random effect. The treatment-by-group term was excluded from the models for the groups combined, to be conservative.

clinical = type: in vivo; details: human; for AUC(0-inf) / AUC(0-t) / Cmax / Tmax / half-life: both sexes, 80 mg
Experimental: […] […] N=58 healthy adult (male and female) subjects were enrolled. Dosing occurred in two groups. […] PK/statistics: PK parameters were calculated using standard noncompartmental approaches. […] The final ANOVA models included group, sequence, treatment, and period nested within group as fixed effects and subject nested within group-by-sequence as a random effect. The treatment-by-group term was excluded from the models for the groups combined, to be conservative.

[2] = both sexes, human, plasma, sc, 2 mg

SMILES: CC/C=C/CC(=O)N[C@@H](Cc1ccc(O)cc1)C(=O)N[C@@H](C)C(=O)N[C@@H](CC(=O)O)C(=O)N[C@@H](C)C(=O)N[C@H](C(=O)N[C@@H](Cc1ccccc1)C(=O)N[C@H](C(=O)N[C@@H](CC(N)=O)C(=O)N[C@@H](CO)C(=O)N[C@@H](Cc1ccc(O)cc1)C(=O)N[C@@H](CCCNC(=N)N)C(=O)N[C@@H](CCCCN)C(=O)N[C@H](C(=O)N[C@@H](CC(C)C)C(=O)NCC(=O)N[C@@H](CCC(N)=O)C(=O)N[C@@H](CC(C)C)C(=O)N[C@@H](CO)C(=O)N[C@@H](C)C(=O)N[C@@H](CCCNC(=N)N)C(=O)N[C@@H](CCCCN)C(=O)N[C@@H](CC(C)C)C(=O)N[C@@H](CC(C)C)C(=O)N[C@@H](CCC(N)=O)C(=O)N[C@@H](CC(=O)O)C(=O)N[C@H](C(=O)N[C@@H](CCSC)C(=O)N[C@@H](CO)C(=O)N[C@@H](CCCNC(=N)N)C(=O)N[C@@H](CCC(N)=O)C(=O)N[C@@H](CCC(N)=O)C(=O)NCC(=O)N[C@@H](CCC(=O)O)C(=O)N[C@@H](CO)C(=O)N[C@@H](CC(N)=O)C(=O)N[C@@H](CCC(N)=O)C(=O)N[C@@H](CCC(=O)O)C(=O)N[C@@H](CCCNC(=N)N)C(=O)NCC(=O)N[C@@H](C)C(=O)N[C@@H](CCCNC(=N)N)C(=O)N[C@@H](C)C(=O)N[C@@H](CCCNC(=N)N)C(=O)N[C@@H](CC(C)C)C(N)=O)[C@@H](C)CC)C(C)C)[C@@H](C)O)[C@@H](C)CC [TH9507, (hexenoyl trans-3)hGRF(1-44)NH2]
- Tmax ([1]; TH9507 2 mg s.c. once daily, day 6 samples, simvastatin studies, median): 9 min
- AUC(0-inf) [1, 2]: 1.05 ng·h/mL
- AUC(0-t) [1, 2]: 0.888 ng·h/mL
- Cmax [1, 2]: 3.36 ng/mL
- half-life [1, 2]: 8.4 min
- impact on CYP3A activity (CYP3A): not significant

- AUC(0-inf) (clinical; in vivo, po): 46.8 ng·h/mL
- AUC(0-t) (clinical; in vivo, po): 43.4 ng·h/mL
- Cmax (clinical; in vivo, po): 4.33 ng/mL
- Tmax (clinical; in vivo, po): 4.5 h
- half-life (clinical; in vivo, po): 484 min
- AUC(0-inf) (clinical; in vivo, sc): 39.9 ng·h/mL
- AUC(0-t) (clinical; in vivo, sc): 37.5 ng·h/mL
- Cmax (clinical; in vivo, sc): 4.28 ng/mL
- Tmax (clinical; in vivo, sc): 4.5 h
- half-life (clinical; in vivo, sc): 415 min
- AUC0-inf, A/B Ratio (%) (clinical; both, in vivo): 85.2%
- AUC0-t, A/B Ratio (%) (clinical; both, in vivo): 86.3%
- Cmax, A/B Ratio (%) (clinical; both, in vivo): 99.0%
SMILES: CCC(C)(C)C(=O)O[C@H]1C[C@@H](C)C=C2C=C[C@H](C)[C@H](CC[C@@H](O)C[C@@H](O)CC(=O)O)[C@H]21 [Simvastatin Acid, simvastatin acid]

- half-life (clinical; plasma, po, read-out: T1/2, Treatment B (converted)): 514 min
- half-life (clinical; plasma, sc, read-out: T1/2, Treatment A (converted)): 457 min
SMILES: CCC(C)(C)C(=O)O[C@H]1C[C@@H](C)C=C2C=C[C@H](C)[C@H](CC[C@@H]3C[C@@H](O)CC(=O)O3)[C@H]21 [Simvastatin, (1S,3R,7S,8S,8aR)-8-{2-[(2R,4R)-4-hydroxy-6-oxooxan-2-yl]ethyl}-3,7-dimethyl-1,2,3,7,8,8a-hexahydronaphthalen-1-yl 2,2-dimethylbutanoate, reference compound]
